Assay results as given in ChEMBL document CHEMBL4043153, “Lead selection of antiparasitic compounds from a focused library of benzenesulfonyl derivatives of heterocycles” (Bioorg Med Chem Lett, 2017).
Calls of active or inactive are those of the source. No cut-off for these calls is given here.

Assays:
[1] = test system: Leishmania donovani; assay: Antiparasitic activity against Leishmania donovani MHOM-ET-67/L82 axenic amastigotes assessed as growth inhibition at 0.8 ug/ml after 72 hrs by resazurin dye-based fluorometric analysis relative to control; type: functional; conditions: MHOM-ET-67/L82, 72 h, read-out: GI
[2] = test system: Leishmania donovani; assay: Antiparasitic activity against Leishmania donovani MHOM-ET-67/L82 axenic amastigotes assessed as growth inhibition at 4.8 ug/ml after 72 hrs by resazurin dye-based fluorometric analysis relative to control; type: functional; conditions: MHOM-ET-67/L82, 72 h, read-out: GI
[3] = test system: Trypanosoma cruzi; assay: Antiparasitic activity against Trypanosoma cruzi Tulahuen C4 intracellular amastigotes infected in rat L6 cells assessed as growth inhibition at 0.8 ug/ml after 96 hrs by CPRG/Nonidet reagent based photometric analysis relative to control; type: functional; conditions: Tulahuen C4, L6, 96 h, read-out: GI
[4] = test system: Trypanosoma cruzi; assay: Antiparasitic activity against Trypanosoma cruzi Tulahuen C4 intracellular amastigotes infected in rat L6 cells assessed as growth inhibition at 4.8 ug/ml after 96 hrs by CPRG/Nonidet reagent based photometric analysis relative to control; type: functional; conditions: Tulahuen C4, L6, 96 h, read-out: GI
[5] = test system: Plasmodium falciparum; assay: (§1) Antiparasitic activity against intraerythrocytic form of chloroquine/pyrimethamine-resistant Plasmodium falciparum K1 infected in human RBC assessed as growth inhibition at 0.8 ug/ml preincubated for 48 hrs followed by [3H]-hypoxanthine addition measured after 24 hrs by liquid scintillation counting analysis relative to control; type: functional; conditions: read-out: GI
[6] = test system: Plasmodium falciparum; assay: as §1, with “4.8” for “0.8”; type: functional; conditions: read-out: GI
[7] = test system: Trypanosoma brucei rhodesiense; assay: Antiparasitic activity against Trypanosoma brucei rhodesiense STIB 900 trypomastigote bloodstream form assessed as growth inhibition at 0.8 ug/ml after 72 hrs by resazurin dye-based fluorometric analysis relative to control; type: functional; conditions: STIB 900, 72 h, read-out: GI
[8] = test system: Trypanosoma brucei rhodesiense; assay: Antiparasitic activity against Trypanosoma brucei rhodesiense STIB 900 trypomastigote bloodstream form assessed as growth inhibition at 4.8 ug/ml after 72 hrs by resazurin dye-based fluorometric analysis relative to control; type: functional; conditions: STIB 900, 72 h, read-out: GI
[9] = test system: Plasmodium falciparum; assay: Antiparasitic activity against intraerythrocytic form of chloroquine/pyrimethamine-resistant Plasmodium falciparum K1 infected in human RBC preincubated for 48 hrs followed by [3H]-hypoxanthine addition measured after 24 hrs by liquid scintillation counting analysis; type: functional
[10] = test system: Trypanosoma cruzi; assay: Antiparasitic activity against Trypanosoma cruzi Tulahuen C4 intracellular amastigotes infected in rat L6 cells after 96 hrs by CPRG/Nonidet reagent based photometric analysis; type: functional, cell-based; conditions: Tulahuen C4, L6, 96 h
[11] = test system: L6; assay: Cytotoxicity against rat L6 cells assessed as cell viability after 72 hrs by Alamar blue assay; type: cell-based; conditions: L6, 72 h
[12] = Selectivity index, ratio of IC50 for rat L6 cells to IC50 for Trypanosoma cruzi Tulahuen C4 intracellular amastigotes infected in rat L6 cells; type: toxicity, cell-based; conditions: read-out: Ratio IC50

Compound	inhibition of growth at 0.8 µg/mL [1]	inhibition of growth at 4.8 µg/mL [2]	inhibition of growth at 0.8 µg/mL [3]	inhibition of growth at 4.8 µg/mL [4]	inhibition of growth at 0.8 µg/mL [5]	inhibition of growth at 4.8 µg/mL [6]	inhibition of growth at 0.8 µg/mL [7]	inhibition of growth at 4.8 µg/mL [8]	Activity [9]	IC50 [10]	IC50 [11]	selectivity ratio [12]
O=S(=O)(c1ccccc1)N1CCc2ccccc21	7.4%	45.3%	0%	10%	2.9%	29.1%	0%	0%	Active			
CC1Cc2ccccc2N1S(=O)(=O)c1ccccc1 (stereo not given)	12.5%	27.9%	0%	5.2%	13.2%	46.4%	4.6%	0%	Active			
CC1Cc2ccccc2N1S(=O)(=O)c1ccc(Cl)cc1 (stereo not given)	9%	83.3%	0%	100%	17.7%	87.9%	6.5%	4%		4.79 µM	11.1 µM	2.31
O=[N+]([O-])c1cccc(S(=O)(=O)N2CCc3ccccc32)c1	15.9%	95.4%	36.4%	100%	14.7%	79.2%	0%	4.3%		1.08 µM	15.1 µM	14
CC1Cc2ccccc2N1S(=O)(=O)c1ccc(Br)cc1 (stereo not given)	17.6%	81.4%	0%	100%	9.1%	76%	0%	0.9%		5.76 µM	13.2 µM	2.29
O=S(=O)(c1ccccc1)n1nnc2ccccc21									Active			
O=S(=O)(c1ccc(C(F)(F)F)cc1)n1nnc2ccccc21	21.8%	44.8%	5.5%	3%	0%	1%	3.4%	0.4%				
COc1ccc(S(=O)(=O)N2c3ccccc3CC2C)cc1 (stereo not given)	2.9%	35%	1.8%	100%	5.3%	49.3%	1.2%	4.4%		9.46 µM	0.44 µM	0.04
Cc1ccc(S(=O)(=O)N2c3ccccc3CC2C)cc1 (stereo not given)	9.4%	5.3%	0%	93.4%	7.7%	53.1%	3.5%	0%				
O=[N+]([O-])c1ccc(S(=O)(=O)n2ccc3ccccc32)cc1	24.2%	77.6%	18.3%	75%	2.5%	60.4%	8.6%	29.3%	Active			
O=S(=O)(c1ccccc1)n1ccc2ccccc21									Active			
CC(=O)c1ccc(S(=O)(=O)n2ccc3ccccc32)cc1	0%	25.9%	0%	0%	12.2%	40.8%	2.2%	0%				
CC1Cc2ccccc2N1S(=O)(=O)c1ccccc1[N+](=O)[O-] (stereo not given)	19.3%	52.4%	0%	15.1%	14.8%	50.5%	6.3%	9.6%				
O=S(=O)(c1cccc(C(F)(F)F)c1)n1ccc2ccccc21	11.7%	45.7%	0%	3.3%	5%	61.1%	0%	0%				
O=[N+]([O-])c1ccccc1S(=O)(=O)n1nnc2ccccc21	32.7%	89.4%	7.3%	7.1%	0%	0%	0%	1.3%				
CC1Cc2ccccc2N1S(=O)(=O)c1ccc(C(F)(F)F)cc1 (stereo not given)	17.9%	86.2%	0%	54.6%	12.7%	91.4%	0%	1.2%				
CC(C)(C)c1ccc(S(=O)(=O)N2CCCc3ccccc32)cc1	49.8%	99.1%	0%	55.6%	23.5%	91.6%	6.7%	5.5%				
CC1CCc2ccccc2N1S(=O)(=O)c1cccc(C(F)(F)F)c1 (stereo not given)	25.8%	82.3%	5.4%	95.6%	5.8%	81.3%	1.8%	0%		6.6 µM	13.1 µM	1.98
CC1CCc2ccccc2N1S(=O)(=O)c1ccccc1[N+](=O)[O-] (stereo not given)	22.4%	66.3%	7.6%	43.7%	8.8%	67.5%	0.4%	2.7%				
O=[N+]([O-])c1cccc(S(=O)(=O)n2ccc3ccccc32)c1	11.7%	59.3%	0%	40.5%	8%	68.8%	1.9%	3.9%				
O=S(=O)(c1ccc(Br)cc1)n1ccc2ccccc21	11.5%	48.1%	0%	0%	0%	45.9%	0%	0%				
O=[N+]([O-])c1ccc(S(=O)(=O)n2nnc3ccccc32)cc1									Active			
CC1Cc2ccccc2N1S(=O)(=O)c1ccc(F)cc1 (stereo not given)	4%	47%	0%	4.8%	12.6%	65%	2.3%	0%				
CC1CCc2ccccc2N1S(=O)(=O)c1ccc(C(F)(F)F)cc1 (stereo not given)	29%	96%	5.3%	98.2%	26.4%	98.8%	5.5%	8.1%		5.89 µM	12.2 µM	2
O=[N+]([O-])c1ccccc1S(=O)(=O)N1CCc2ccccc21	4%	81.5%	0%	24.5%	4%	48%	10.4%	17.9%				
